The text below walks through data of patent US12599582B2, “Pyrrole compounds” (ALIGOS THERAPEUTICS, INC., priority 2019, dated 2026).

pEC50: −log10 of the molar value.

In this experiment the test system is HBV. Description: HBV-DNA Antiviral Assay Using HepG2.2.15 Cells (extracellular HBV DNA by qPCR). Format: cell-based, hepatitis B virus (HBV). As to conditions: Hepatitis B virus; HBV DNA inhibition, HepG2.2.15 cells, extracellular HBV DNA by qPCR; read-out: EC50. In outline: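 HepG2.2.15 cells were treated on day 1 with 8 concentrations (4-fold dilutions, duplicate; 0.5% DMSO), with compound-containing medium refreshed on day 4, at 37 °C. On day 7, supernatant HBV DNA was measured by qPCR against a plasmid standard curve, with inhibition normalised between DMSO and ETV controls. EC50/EC90 and CC50 (CellTiter-Glo ATP) came from variable-slope fits.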
(In general: Quantitative PCR measures a nucleic acid by following its amplification.)

Consider `C=CC1(NC(=O)C(=O)c2c(C)c(C(=O)Nc3ccc(F)c(C#N)c3)n(C)c2C)COC1` [Compound 33, N-(3-cyano-4-fluoro-phenyl)-1,3,5-trimethyl-4-[2-oxo-2-[(3-vinyloxetan-3-yl)amino]acetyl]pyrrole-2-carboxamide], for which the pEC50 (commonly the negative decadic logarithm of the EC50, by convention in mol/L) is 8.00 to 9.00.
For the molecule `Cc1c(C(=O)C(=O)NC2(C#CC3(O)CC3)COC2)c(C)n(C)c1C(=O)Nc1ccc(F)c(C#N)c1` [Compound 102, N-(3-cyano-4-fluoro-phenyl)-4-[2-[[3-[2-(1-hydroxycyclopropyl)ethynyl]oxetan-3-yl]amino]-2-oxo-acetyl]-1,3,5-trimethyl-pyrrole-2-carboxamide], the negative logarithm of the EC50 (pEC50) is 8.00 to 9.00.
For the molecule `Cc1c(C(=O)C(=O)NC2(c3c[nH]cn3)COC2)c(C)n(C)c1C(=O)Nc1ccc(F)c(C(F)(F)F)c1` [Compound 156, N-[4-fluoro-3-(trifluoromethyl)phenyl]-4-[2-[[3-(1H-imidazol-4-yl)oxetan-3-yl]amino]-2-oxo-acetyl]-1,3,5-trimethyl-pyrrole-2-carboxamide], the negative logarithm of the EC50 (pEC50) is greater than 9.00.
With `C#C[C@@](CO)(NC(=O)C(=O)c1c(C)c(C(=O)Nc2ccc(F)c(C(F)(F)F)c2)n(C)c1C)C(F)(F)F` [Compound 75b, N-[4-fluoro-3-(trifluoromethyl)phenyl]-1,3,5-trimethyl-4-[2-oxo-2-[[(1S)-1-(hydroxymethyl)-1-(trifluoromethyl)prop-2-ynyl]amino]acetyl]pyrrole-2-carboxamide] the figure was 7.00 to 8.00; with `C#C[C@H](COC)NC(=O)C(=O)c1c(C)c(C(=O)Nc2ccc(F)c(C#N)c2)n(C)c1C` [Compound 28b, N-(3-cyano-4-fluoro-phenyl)-4-[2-[[(1R)-1-(methoxymethyl)prop-2-ynyl]amino]-2-oxo-acetyl]-1,3,5-trimethyl-pyrrole-2-carboxamide], 8.00 to 9.00; with `C#CC1(NC(=O)C(=O)c2c(C)c(C(=O)Nc3ccc(Br)c(Cl)c3)n(C)c2C)CC(F)(F)C1` [Compound 134, N-(4-bromo-3-chloro-phenyl)-4-[2-[(1-ethynyl-3,3-difluoro-cyclobutyl)amino]-2-oxo-acetyl]-1,3,5-trimethyl-pyrrole-2-carboxamide], 8.00 to 9.00.
Take `C#C[C@](CO)(NC(=O)C(=O)c1c(C)c(C(=O)Nc2ccc(F)c(C#N)c2)n(C)c1C)C1CC1` [Compound 63a, N-(3-cyano-4-fluoro-phenyl)-1,3,5-trimethyl-4-[2-oxo-2-[[(1R)-1-cyclopropyl-1-(hydroxymethyl)prop-2-ynyl]amino]acetyl]pyrrole-2-carboxamide]: the pEC50 is 8.00 to 9.00.
With `Cc1c(C(=O)C(=O)NC(C)(C)c2c[nH]cn2)c(C)n(C)c1C(=O)Nc1ccc(F)c(C#N)c1` [Compound 104, N-(3-cyano-4-fluoro-phenyl)-4-[2-[[1-(1H-imidazol-4-yl)-1-methyl-ethyl]amino]-2-oxo-acetyl]-1,3,5-trimethyl-pyrrole-2-carboxamide] the figure was 8.00 to 9.00; with `C#C[C@@H](NC(=O)C(=O)c1c(C)c(C(=O)Nc2ccc(F)c(C#N)c2)n(C)c1C)C(C)(C)C` [Compound 30b, N-(3-cyano-4-fluoro-phenyl)-1,3,5-trimethyl-4-[2-oxo-2-[[(1S)-1-tert-butylprop-2-ynyl]amino]acetyl]pyrrole-2-carboxamide], greater than 9.00; with `Cc1c(C(=O)C(=O)NC(C)(C)c2ccnn2C)c(C)n(C)c1C(=O)Nc1ccc(F)c(C(F)(F)F)c1` [Compound 138, N-[4-fluoro-3-(trifluoromethyl)phenyl]-1,3,5-trimethyl-4-[2-[[1-methyl-1-(2-methylpyrazol-3-yl)ethyl]amino]-2-oxo-acetyl]pyrrole-2-carboxamide], 8.00 to 9.00.
Regarding `Cc1c(C(=O)C(=O)NC(C)(C)c2ccncc2)c(C)n(C)c1C(=O)Nc1ccc(F)c(C(F)(F)F)c1` [Compound 101, N-[4-fluoro-3-(trifluoromethyl)phenyl]-1,3,5-trimethyl-4-[2-[[1-methyl-1-(4-pyridyl)ethyl]amino]-2-oxo-acetyl]pyrrole-2-carboxamide], the pEC50 was 8.00 to 9.00.
Regarding `C#CC1(NC(=O)C(=O)c2c(C)c(C(=O)Nc3ccnc(F)c3Br)n(C)c2C)COC1` [Compound 67, N-(3-bromo-2-fluoro-4-pyridyl)-4-[2-[(3-ethynyloxetan-3-yl)amino]-2-oxo-acetyl]-1,3,5-trimethyl-pyrrole-2-carboxamide], the negative logarithm of the EC50 (pEC50) is 7.00 to 8.00.
For `C#CCNC(=O)C(=O)c1cc(C(=O)Nc2ccc(F)c(C#N)c2)n(C)c1` [Compound 3, N-(3-cyano-4-fluoro-phenyl)-1-methyl-4-[2-oxo-2-(prop-2-ynylamino)acetyl]pyrrole-2-carboxamide] the value was less than 6.00; for `Cc1c(C(=O)C(=O)NC2(C#C[C@H](C)O)COC2)c(C)n(C)c1C(=O)Nc1ccc(F)c(C#N)c1` [Compound 94b, N-(3-cyano-4-fluoro-phenyl)-1,3,5-trimethyl-4-[2-oxo-2-[[3-[(3S)-3-hydroxybut-1-ynyl]oxetan-3-yl]amino]acetyl]pyrrole-2-carboxamide], 8.00 to 9.00; for `C#C[C@](CO)(NC(=O)C(=O)c1c(C)c(C(=O)Nc2ccc(F)c(C#N)c2)n(C)c1C)C(F)(F)F` [Compound 71a, N-(3-cyano-4-fluoro-phenyl)-1,3,5-trimethyl-4-[2-oxo-2-[[(1R)-1-(hydroxymethyl)-1-(trifluoromethyl)prop-2-ynyl]amino]acetyl]pyrrole-2-carboxamide], 8.00 to 9.00.
In the case of `Cc1c(C(=O)C(=O)NC(C)(C)c2c[nH]cn2)c(C)n(C)c1C(=O)Nc1ccc(F)c(C(F)(F)F)c1` [Compound 106, N-[4-fluoro-3-(trifluoromethyl)phenyl]-4-[2-[[1-(1H-imidazol-4-yl)-1-methyl-ethyl]amino]-2-oxo-acetyl]-1,3,5-trimethyl-pyrrole-2-carboxamide], the negative-log EC50 (pEC50) was 8.00 to 9.00.
Regarding `Cc1c(C(=O)C(=O)NCC#CC2CC2)c(C)n(C)c1C(=O)Nc1ccc(F)c(C#N)c1` [Compound 22, N-(3-cyano-4-fluoro-phenyl)-4-[2-(3-cyclopropylprop-2-ynylamino)-2-oxo-acetyl]-1,3,5-trimethyl-pyrrole-2-carboxamide], the negative logarithm of the EC50 (pEC50) was 8.00 to 9.00.
With `C#CC1(NC(=O)C(=O)c2c(C)c(C(=O)Nc3ccc(F)c(C#N)c3)n(C)c2C)CC(F)(F)C1` [Compound 24, N-(3-cyano-4-fluoro-phenyl)-4-[2-[(1-ethynyl-3,3-difluoro-cyclobutyl)amino]-2-oxo-acetyl]-1,3,5-trimethyl-pyrrole-2-carboxamide] the figure was greater than 9.00; with `C#C[C@@](CO)(NC(=O)C(=O)c1c(C)c(C(=O)Nc2ccc(F)c(C(F)(F)F)c2)n(C)c1C)C1CC1` [Compound 65b, N-[4-fluoro-3-(trifluoromethyl)phenyl]-1,3,5-trimethyl-4-[2-oxo-2-[[(1S)-1-cyclopropyl-1-(hydroxymethyl)prop-2-ynyl]amino]acetyl]pyrrole-2-carboxamide], 8.00 to 9.00; with `Cc1c(C(=O)C(=O)NC(C)(C)c2ccccn2)c(C)n(C)c1C(=O)Nc1ccc(F)c(C#N)c1` [Compound 91, N-(3-cyano-4-fluoro-phenyl)-1,3,5-trimethyl-4-[2-[[1-methyl-1-(2-pyridyl)ethyl]amino]-2-oxo-acetyl]pyrrole-2-carboxamide], 8.00 to 9.00.
In the case of `C#CCNC(=O)C(=O)c1c(F)c(C(=O)Nc2ccc(F)c(C#N)c2)n(C)c1Cl` [Compound 12, 5-chloro-N-(3-cyano-4-fluoro-phenyl)-3-fluoro-1-methyl-4-[2-oxo-2-(prop-2-ynylamino)acetyl]pyrrole-2-carboxamide], the negative-log EC50 (pEC50) is 6.00 to 7.00.
In the case of `C#CC1(NC(=O)C(=O)c2c(C)c(C(=O)Nc3ccc(F)c(C#N)c3)n(C)c2Cl)CC(F)(F)C1` [Compound 39, 5-chloro-N-(3-cyano-4-fluoro-phenyl)-4-[2-[(1-ethynyl-3,3-difluoro-cyclobutyl)amino]-2-oxo-acetyl]-1,3-dimethyl-pyrrole-2-carboxamide], the pEC50 was greater than 9.00.
With `C#CC1(NC(=O)C(=O)c2c(C)c(C(=O)Nc3ccc(F)c(C#N)c3)n(C)c2C)CC1` [Compound 14, N-(3-cyano-4-fluoro-phenyl)-4-[2-[(1-ethynylcyclopropyl)amino]-2-oxo-acetyl]-1,3,5-trimethyl-pyrrole-2-carboxamide] the figure was greater than 9.00; with `C=C[C@](C)(CO)NC(=O)C(=O)c1c(C)c(C(=O)Nc2ccc(F)c(C#N)c2)n(C)c1C` [Compound 72a, N-(3-cyano-4-fluoro-phenyl)-1,3,5-trimethyl-4-[2-oxo-2-[[(1R)-1-(hydroxymethyl)-1-methyl-allyl]amino]acetyl]pyrrole-2-carboxamide], 8.00 to 9.00; with `C=C[C@@](C)(NC(=O)C(=O)c1c(C)c(C(=O)Nc2ccc(F)c(C#N)c2)n(C)c1C)C(F)(F)F` [Compound 95a, N-(3-cyano-4-fluoro-phenyl)-1,3,5-trimethyl-4-[2-oxo-2-[[(1R)-1-methyl-1-(trifluoromethyl)allyl]amino]acetyl]pyrrole-2-carboxamide], 8.00 to 9.00.
For `C#CC1(NC(=O)C(=O)c2c(Cl)c(C(=O)Nc3ccc(F)c(C#N)c3)n(C)c2C)CC(F)(F)C1` [Compound 52, 3-chloro-N-(3-cyano-4-fluoro-phenyl)-4-[2-[(1-ethynyl-3,3-difluoro-cyclobutyl)amino]-2-oxo-acetyl]-1,5-dimethyl-pyrrole-2-carboxamide] the value was greater than 9.00; for `C#CC1(NC(=O)C(=O)c2c(C)c(C(=O)Nc3ccc(F)c(C(F)F)c3)n(C)c2Cl)CC(F)(F)C1` [Compound 81, 5-chloro-N-[3-(difluoromethyl)-4-fluoro-phenyl]-4-[2-[(1-ethynyl-3,3-difluoro-cyclobutyl)amino]-2-oxo-acetyl]-1,3-dimethyl-pyrrole-2-carboxamide], 8.00 to 9.00.
